{"source": "ChEMBL document CHEMBL5696442", "about": "“Discovery of type II inhibitors of TGFβ-activated kinase 1 (TAK1) and mitogen-activated protein kinase kinase kinase kinase 2 (MAP4K2)” (J Med Chem, 2015)", "key": {"[1]": {"target": "RAC-gamma serine/threonine-protein kinase (Homo sapiens) (UniProt Q9Y243)", "experiment": "Inhibition of AKT3 (unknown origin) at 10 uM by Ambit Kinomescan binding assay"}, "[2]": {"target": "T1, Phosphatidylinositol 5-phosphate 4-kinase type-2 gamma (Homo sapiens) (UniProt Q8TBX8)", "T1 sequence (whole entry)": "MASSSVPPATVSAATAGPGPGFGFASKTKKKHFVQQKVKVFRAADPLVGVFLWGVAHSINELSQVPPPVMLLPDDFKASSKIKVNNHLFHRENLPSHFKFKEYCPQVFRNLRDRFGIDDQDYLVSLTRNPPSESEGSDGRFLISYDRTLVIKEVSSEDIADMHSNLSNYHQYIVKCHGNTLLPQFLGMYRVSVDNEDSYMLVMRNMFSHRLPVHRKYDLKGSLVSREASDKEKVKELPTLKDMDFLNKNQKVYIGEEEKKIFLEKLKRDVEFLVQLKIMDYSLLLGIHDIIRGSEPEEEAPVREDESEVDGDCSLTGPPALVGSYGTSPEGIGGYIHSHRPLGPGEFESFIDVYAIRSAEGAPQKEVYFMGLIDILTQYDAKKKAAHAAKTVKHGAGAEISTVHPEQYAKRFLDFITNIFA", "experiment": "Inhibition of PIP5K2C C2 labeling site in human Huh-7 cells at 1 uM by KiNativ Profiling analysis relative to control", "type": "cell-based"}, "[3]": {"target": "Serine/threonine-protein kinase MARK2 (Homo sapiens) (UniProt Q7KZI7)", "sequence (Q7KZI7 whole entry)": "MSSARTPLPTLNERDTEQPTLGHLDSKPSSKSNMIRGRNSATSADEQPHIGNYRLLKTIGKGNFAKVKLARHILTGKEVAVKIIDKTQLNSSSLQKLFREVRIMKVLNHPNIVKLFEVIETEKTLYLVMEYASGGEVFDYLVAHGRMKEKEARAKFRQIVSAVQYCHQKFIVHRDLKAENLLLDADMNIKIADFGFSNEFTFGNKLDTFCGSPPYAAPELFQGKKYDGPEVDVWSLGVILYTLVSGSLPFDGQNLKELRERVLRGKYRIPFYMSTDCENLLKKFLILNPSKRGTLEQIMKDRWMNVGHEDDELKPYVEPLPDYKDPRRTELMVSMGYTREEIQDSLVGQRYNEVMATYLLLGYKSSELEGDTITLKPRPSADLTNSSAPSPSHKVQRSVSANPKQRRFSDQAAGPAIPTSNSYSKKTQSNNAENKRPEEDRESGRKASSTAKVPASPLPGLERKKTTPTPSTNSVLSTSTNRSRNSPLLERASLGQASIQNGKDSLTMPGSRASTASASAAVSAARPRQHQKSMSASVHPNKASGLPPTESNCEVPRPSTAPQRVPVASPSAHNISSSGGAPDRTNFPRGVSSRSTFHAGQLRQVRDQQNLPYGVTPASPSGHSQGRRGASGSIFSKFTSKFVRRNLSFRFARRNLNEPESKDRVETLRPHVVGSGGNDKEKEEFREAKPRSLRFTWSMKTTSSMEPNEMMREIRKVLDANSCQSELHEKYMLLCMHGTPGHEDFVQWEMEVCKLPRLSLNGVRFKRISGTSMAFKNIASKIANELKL", "experiment": "Inhibition of MARK2 K1 labeling site harbouring HILTGKEVAVKIIDKTQLNSSSLQK in human Huh-7 cells at 10 uM by KiNativ Profiling analysis relative to control", "type": "cell-based"}, "[4]": {"target": "Maternal embryonic leucine zipper kinase (Homo sapiens) (UniProt Q14680)", "experiment": "Inhibition of MELK (unknown origin) at 10 uM by Ambit Kinomescan binding assay"}, "[5]": {"target": "Serine/threonine-protein kinase PAK 3 (Homo sapiens) (UniProt O75914)", "experiment": "Inhibition of PAK3 (unknown origin) at 10 uM by Ambit Kinomescan binding assay"}, "[6]": {"target": "Cyclin-G-associated kinase (Homo sapiens) (UniProt O14976)", "sequence (O14976 whole entry)": "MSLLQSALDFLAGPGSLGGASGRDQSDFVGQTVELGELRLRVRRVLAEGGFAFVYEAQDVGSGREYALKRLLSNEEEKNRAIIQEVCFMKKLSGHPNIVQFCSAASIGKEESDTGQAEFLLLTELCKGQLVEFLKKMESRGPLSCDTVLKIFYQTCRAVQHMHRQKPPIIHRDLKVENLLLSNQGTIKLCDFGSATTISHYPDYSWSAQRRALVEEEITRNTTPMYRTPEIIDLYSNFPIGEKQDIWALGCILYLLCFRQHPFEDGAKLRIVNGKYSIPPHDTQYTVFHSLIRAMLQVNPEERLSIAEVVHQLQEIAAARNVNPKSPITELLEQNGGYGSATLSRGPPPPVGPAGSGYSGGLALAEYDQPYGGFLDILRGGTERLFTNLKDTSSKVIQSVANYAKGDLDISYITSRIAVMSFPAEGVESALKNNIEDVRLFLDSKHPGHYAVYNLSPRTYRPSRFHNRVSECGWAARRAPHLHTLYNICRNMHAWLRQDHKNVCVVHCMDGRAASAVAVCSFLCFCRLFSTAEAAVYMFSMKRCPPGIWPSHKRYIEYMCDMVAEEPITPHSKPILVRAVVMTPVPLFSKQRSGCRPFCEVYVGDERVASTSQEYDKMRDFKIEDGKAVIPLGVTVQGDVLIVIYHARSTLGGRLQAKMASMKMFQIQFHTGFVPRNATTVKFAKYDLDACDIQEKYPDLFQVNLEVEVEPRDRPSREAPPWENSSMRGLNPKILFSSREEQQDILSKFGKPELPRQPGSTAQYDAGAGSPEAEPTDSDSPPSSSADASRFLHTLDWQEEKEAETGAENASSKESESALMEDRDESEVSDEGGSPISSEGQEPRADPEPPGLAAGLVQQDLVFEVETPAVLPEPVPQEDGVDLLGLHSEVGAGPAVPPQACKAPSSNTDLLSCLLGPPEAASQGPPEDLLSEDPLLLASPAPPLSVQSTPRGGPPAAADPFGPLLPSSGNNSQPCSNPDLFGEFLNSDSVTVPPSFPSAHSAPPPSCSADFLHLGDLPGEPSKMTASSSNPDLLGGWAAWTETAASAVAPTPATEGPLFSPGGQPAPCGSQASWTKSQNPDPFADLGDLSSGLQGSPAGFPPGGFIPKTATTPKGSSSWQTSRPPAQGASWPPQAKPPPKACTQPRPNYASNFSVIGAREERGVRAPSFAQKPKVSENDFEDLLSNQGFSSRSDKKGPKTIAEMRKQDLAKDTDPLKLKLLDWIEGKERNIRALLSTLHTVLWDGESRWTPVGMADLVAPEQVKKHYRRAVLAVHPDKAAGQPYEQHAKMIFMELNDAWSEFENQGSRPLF", "experiment": "Inhibition of GAK (unknown origin) at 10 uM by Ambit Kinomescan binding assay relative to control"}, "[7]": {"target": "T2, Serine/threonine-protein kinase greatwall (Homo sapiens) (UniProt Q96GX5)", "T2 sequence (whole entry)": "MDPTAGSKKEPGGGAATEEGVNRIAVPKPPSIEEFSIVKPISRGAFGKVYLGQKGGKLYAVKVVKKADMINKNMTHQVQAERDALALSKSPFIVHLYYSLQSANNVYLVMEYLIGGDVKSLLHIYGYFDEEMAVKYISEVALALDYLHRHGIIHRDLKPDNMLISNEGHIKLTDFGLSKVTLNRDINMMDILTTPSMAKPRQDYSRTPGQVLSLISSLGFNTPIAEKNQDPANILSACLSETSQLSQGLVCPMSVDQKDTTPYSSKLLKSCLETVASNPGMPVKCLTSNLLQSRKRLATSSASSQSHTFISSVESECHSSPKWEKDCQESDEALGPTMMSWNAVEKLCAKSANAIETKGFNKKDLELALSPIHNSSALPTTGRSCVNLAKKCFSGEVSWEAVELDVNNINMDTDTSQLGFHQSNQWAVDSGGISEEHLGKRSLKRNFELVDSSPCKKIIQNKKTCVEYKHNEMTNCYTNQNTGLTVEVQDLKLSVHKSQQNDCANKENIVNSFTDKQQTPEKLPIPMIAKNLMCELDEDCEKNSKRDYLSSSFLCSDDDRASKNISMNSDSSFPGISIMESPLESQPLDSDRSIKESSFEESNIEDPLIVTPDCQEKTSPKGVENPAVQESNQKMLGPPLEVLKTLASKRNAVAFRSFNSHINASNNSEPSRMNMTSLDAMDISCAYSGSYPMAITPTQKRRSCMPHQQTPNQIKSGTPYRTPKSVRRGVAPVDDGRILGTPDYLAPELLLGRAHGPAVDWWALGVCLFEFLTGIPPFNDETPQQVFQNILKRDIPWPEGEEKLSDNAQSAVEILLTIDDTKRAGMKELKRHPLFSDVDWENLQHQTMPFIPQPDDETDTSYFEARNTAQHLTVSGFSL", "experiment": "Inhibition of MASTL ATP labeling site in human Huh-7 cell lysate at 1 uM by KiNativ Profiling analysis relative to control", "type": "subcellular"}, "[8]": {"target": "Serine/threonine-protein kinase MARK2 (Homo sapiens) (UniProt Q7KZI7)", "experiment": "Inhibition of MARK2 Lys2 labeling site harbouring DLKAENLLLDADMNIK in human Huh-7 cell lysate at 1 uM by KiNativ Profiling analysis relative to control", "type": "subcellular"}, "[9]": {"target": "T3, Scaffold protein ILK (Homo sapiens) (UniProt Q13418)", "T3 sequence (whole entry)": "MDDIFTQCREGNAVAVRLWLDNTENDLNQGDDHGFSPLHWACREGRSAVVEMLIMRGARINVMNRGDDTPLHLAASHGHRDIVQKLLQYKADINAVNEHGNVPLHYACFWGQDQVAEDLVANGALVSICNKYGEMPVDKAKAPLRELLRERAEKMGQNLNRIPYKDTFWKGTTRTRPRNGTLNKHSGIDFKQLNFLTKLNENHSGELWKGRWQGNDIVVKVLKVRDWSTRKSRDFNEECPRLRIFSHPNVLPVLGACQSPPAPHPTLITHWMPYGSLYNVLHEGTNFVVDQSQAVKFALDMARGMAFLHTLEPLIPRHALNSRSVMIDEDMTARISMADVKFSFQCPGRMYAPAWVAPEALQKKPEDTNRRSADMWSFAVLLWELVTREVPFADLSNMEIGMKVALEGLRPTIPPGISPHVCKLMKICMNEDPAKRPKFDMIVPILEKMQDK", "experiment": "Inhibition of ILK Protein Kinase Domain labeling site in human Huh-7 cells at 1 uM by KiNativ Profiling analysis relative to control", "type": "cell-based"}, "[10]": {"target": "Serine/threonine-protein kinase ATR (Homo sapiens) (UniProt Q13535)", "experiment": "Inhibition of ATR in human Huh-7 cells at 1 uM by KiNativ Profiling analysis relative to control", "type": "cell-based"}, "[11]": {"test_system": "Tyrosine-protein kinase ABL1 (Homo sapiens), P00519 [F317I]", "sequence (P00519 whole entry F317I)": "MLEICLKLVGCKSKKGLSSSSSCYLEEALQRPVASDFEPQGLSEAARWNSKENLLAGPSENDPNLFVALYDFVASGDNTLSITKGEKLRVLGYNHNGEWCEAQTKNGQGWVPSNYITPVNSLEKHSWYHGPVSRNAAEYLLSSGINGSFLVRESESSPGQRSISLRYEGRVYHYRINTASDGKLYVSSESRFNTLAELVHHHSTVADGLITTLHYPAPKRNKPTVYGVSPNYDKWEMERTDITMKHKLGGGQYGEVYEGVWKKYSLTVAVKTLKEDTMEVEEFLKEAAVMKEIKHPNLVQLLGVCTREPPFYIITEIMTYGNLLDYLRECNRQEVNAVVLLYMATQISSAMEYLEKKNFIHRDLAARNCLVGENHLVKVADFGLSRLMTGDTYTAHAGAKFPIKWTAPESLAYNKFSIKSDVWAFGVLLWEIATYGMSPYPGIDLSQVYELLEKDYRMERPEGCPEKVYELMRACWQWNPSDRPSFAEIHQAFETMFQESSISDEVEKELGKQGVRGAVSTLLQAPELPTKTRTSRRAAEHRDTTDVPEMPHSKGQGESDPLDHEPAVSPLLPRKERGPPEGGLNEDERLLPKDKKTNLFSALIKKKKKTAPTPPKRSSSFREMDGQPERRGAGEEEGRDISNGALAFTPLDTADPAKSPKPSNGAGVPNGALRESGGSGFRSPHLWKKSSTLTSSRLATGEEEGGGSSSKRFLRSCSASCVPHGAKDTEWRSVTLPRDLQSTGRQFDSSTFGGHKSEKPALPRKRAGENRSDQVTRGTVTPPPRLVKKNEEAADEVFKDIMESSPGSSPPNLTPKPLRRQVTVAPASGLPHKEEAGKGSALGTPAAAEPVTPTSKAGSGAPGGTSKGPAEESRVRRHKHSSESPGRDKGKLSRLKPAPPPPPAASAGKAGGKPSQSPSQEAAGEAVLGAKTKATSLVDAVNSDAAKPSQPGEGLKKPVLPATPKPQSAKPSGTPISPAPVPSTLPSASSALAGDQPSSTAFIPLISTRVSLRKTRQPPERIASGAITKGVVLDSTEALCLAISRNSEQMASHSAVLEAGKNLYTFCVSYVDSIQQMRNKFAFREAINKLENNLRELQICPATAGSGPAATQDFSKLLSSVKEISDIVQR", "experiment": "Inhibition of phosphorylated ABL1 F317I mutant (unknown origin) at 1 uM by Ambit Kinomescan binding assay relative to control; values are per cent of control"}, "[12]": {"target": "Ephrin type-A receptor 1 (Homo sapiens) (UniProt P21709)", "sequence (P21709 whole entry)": "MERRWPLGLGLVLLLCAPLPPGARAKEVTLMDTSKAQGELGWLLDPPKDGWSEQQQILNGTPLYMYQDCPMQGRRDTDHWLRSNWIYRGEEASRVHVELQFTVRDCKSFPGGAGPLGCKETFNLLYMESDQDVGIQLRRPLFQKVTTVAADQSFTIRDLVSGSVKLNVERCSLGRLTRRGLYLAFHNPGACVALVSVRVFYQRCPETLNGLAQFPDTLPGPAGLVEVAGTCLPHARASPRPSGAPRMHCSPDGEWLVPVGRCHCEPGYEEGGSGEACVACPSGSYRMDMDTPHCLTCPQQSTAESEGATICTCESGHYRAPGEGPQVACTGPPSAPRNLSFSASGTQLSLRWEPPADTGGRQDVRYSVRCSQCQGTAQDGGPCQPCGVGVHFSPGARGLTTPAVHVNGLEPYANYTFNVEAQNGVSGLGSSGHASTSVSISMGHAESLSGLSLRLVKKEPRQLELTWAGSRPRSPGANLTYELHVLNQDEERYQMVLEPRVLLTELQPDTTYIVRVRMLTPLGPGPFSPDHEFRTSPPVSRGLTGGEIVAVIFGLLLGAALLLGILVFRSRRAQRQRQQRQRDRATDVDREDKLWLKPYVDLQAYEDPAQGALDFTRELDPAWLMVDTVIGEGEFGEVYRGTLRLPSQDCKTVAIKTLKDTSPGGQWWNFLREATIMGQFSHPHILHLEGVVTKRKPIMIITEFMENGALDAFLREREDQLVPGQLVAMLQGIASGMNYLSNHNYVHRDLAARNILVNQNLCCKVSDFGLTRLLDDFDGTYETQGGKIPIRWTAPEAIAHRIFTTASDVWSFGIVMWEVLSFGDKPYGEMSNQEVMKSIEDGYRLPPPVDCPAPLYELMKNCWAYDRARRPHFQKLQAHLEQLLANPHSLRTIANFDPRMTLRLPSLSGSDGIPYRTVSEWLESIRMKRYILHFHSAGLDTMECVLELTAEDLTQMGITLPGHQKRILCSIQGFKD", "experiment": "Inhibition of EPHA1 (unknown origin) at 1 uM by Ambit Kinomescan binding assay relative to control; values are per cent of control"}, "[13]": {"target": "Activin receptor type-1 (Homo sapiens) (UniProt Q04771)", "sequence (Q04771 whole entry)": "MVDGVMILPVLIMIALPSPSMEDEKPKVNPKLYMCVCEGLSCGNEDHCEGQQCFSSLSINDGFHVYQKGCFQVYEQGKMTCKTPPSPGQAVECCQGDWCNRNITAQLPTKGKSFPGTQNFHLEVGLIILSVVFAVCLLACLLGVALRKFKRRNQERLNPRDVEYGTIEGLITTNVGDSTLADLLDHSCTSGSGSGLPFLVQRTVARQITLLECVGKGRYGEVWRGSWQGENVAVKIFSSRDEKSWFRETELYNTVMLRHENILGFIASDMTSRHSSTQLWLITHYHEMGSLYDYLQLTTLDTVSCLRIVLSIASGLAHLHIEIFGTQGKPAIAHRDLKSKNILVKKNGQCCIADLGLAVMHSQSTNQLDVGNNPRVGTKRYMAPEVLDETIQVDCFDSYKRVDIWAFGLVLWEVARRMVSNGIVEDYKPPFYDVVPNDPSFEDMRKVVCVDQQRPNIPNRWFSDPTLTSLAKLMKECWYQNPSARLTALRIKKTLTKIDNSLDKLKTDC", "experiment": "Inhibition of ACVR1 (unknown origin) at 1 uM by Ambit Kinomescan binding assay relative to control"}, "[14]": {"target": "Serine/threonine-protein kinase SIK2 (Homo sapiens) (UniProt Q9H0K1)", "experiment": "Inhibition of SIK2 (unknown origin) at 1 uM by Ambit Kinomescan binding assay relative to control"}, "[15]": {"target": "Receptor-interacting serine/threonine-protein kinase 1 (Homo sapiens) (UniProt Q13546)", "experiment": "Inhibition of RIPK1 (unknown origin) at 1 uM by Ambit Kinomescan binding assay relative to control"}}, "note": "Active and inactive are the calls of the source. The rule behind the calls is not given here."}
{"smiles": "CCN1CCN(Cc2ccc(NC(=O)c3ccc(C)c(Oc4ccnc5[nH]ccc45)c3)cc2C(F)(F)F)CC1", "values": [{"measurement": "inhibition", "setting": "[1]", "result": "inactive"}, {"measurement": "inhibition", "setting": "[2]", "result": 1.3, "unit": "%"}, {"measurement": "inhibition", "setting": "[3]", "result": "inactive"}, {"measurement": "inhibition", "setting": "[4]", "result": "inactive"}, {"measurement": "inhibition", "setting": "[5]", "result": "inactive"}, {"measurement": "inhibition", "setting": "[6]", "result": 31, "unit": "%"}]}
{"smiles": "CNc1cc(Oc2cc(C(=O)Nc3cc(N4CCN(C)CC4)cc(C(F)(F)F)c3)ccc2C)ncn1", "values": [{"measurement": "inhibition", "setting": "[7]", "result": 8.6, "unit": "%"}, {"measurement": "inhibition", "setting": "[8]", "result": -4.1, "unit": "%"}, {"measurement": "inhibition", "setting": "[9]", "result": -0.1, "unit": "%"}, {"measurement": "inhibition", "setting": "[10]", "result": 29.3, "unit": "%"}]}
{"smiles": "CCN1CCN(Cc2ccc(NC(=O)c3ccc(C)c(/C=C/c4cnc5[nH]ccc5c4OC)c3)cc2C(F)(F)F)CC1", "values": [{"measurement": "percent of control", "setting": "[11]", "result": 22, "unit": "%"}, {"measurement": "residual activity", "setting": "[12]", "result": 16, "unit": "%"}, {"measurement": "inhibition", "setting": "[13]", "result": 100, "unit": "%"}, {"measurement": "inhibition", "setting": "[14]", "result": 26, "unit": "%"}, {"measurement": "inhibition", "setting": "[15]", "result": 15, "unit": "%"}]}
